Laboratory results published in patent publication US10238631B2, “Sesquiterpene derivatives and their use in inflammation or cancer treatment” (Academia Sinica, priority 2014, dated 2019).
Read-outs that look alike come from different tables or passages of the source.

Experiments:
PC3 (Prostate) = test: MTT cell viability assay, PC3; format: cell-based; settings: 24 h
Protocol: (§1) Normal or cancer cells (2×10^3 to 1×10^4 cells/well) were seeded in 96-well plate for overnight and treated with different compounds for 24 h to 72 h. Cells growth were determined by MTT-based colorimetric assays according to. Viability of the test cells treated with vehicle (0.5% DMSO) only was defined as 100% viable. Survival of cells after treatment with DETDs was calculated using the following formula: viable cell number (%)=OD570 (treated cell culture)/OD570 (vehicle control)×100.
(§2) Based on toxicity results of DET and DETDs on different breast cancer and melanoma cell lines, we selected DETD-6, -32, -35 and -39, under the consideration of structure activity relationship for evaluating their suppression effect against other cancer types of cell line with indicated tumor origin in Table 5. […] The cells were treated with compounds for 24 h and then subjected to MTT assays.

U937 lymphoma line = test: MTT cell viability assay, U937; format: cell-based; settings: Homo sapiens, U-937, 24 h
Protocol: as §1, §2

[1] = tested on: U-87MG brain cancer cell line; test: MTT cell viability assay, U-87MG; format: cell-based; settings: Homo sapiens, 24 h
Protocol: as §1, §2

[2] = tested on: SK-N-MC neuroepithelioma line; test: MTT cell viability assay, SK-N-MC; format: cell-based; settings: Homo sapiens, 24 h
Protocol: as §1, §2

[3] = tested on: MeWo (No NRAS or BRAF mutation); test: MTT cell viability assay, MeWo melanoma; format: cell-based, human; settings: 24 h
Outline: (§3)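 MTT readout at OD570, normalised to 0.5% DMSO vehicle-treated cells set as 100% viable. Compound exposure lasted 24 h to 72 h after overnight seeding of 2×10^3 to 1×10^4 cells/well.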

MDA-MB-231 mammary tumor = test: Orthotopic MDA-MB-231 mammary tumor growth in NOD/SCID mice; format: in vivo, mouse
Protocol: Mammary tumor response to DET analog (DETD-35) was studied using MDA-MB-231 cancer cell bearing NOD/SCID mice (6 weeks old). The mammary fat pad regions of mice were injected with 5×10^6 MDA-MB-231 cells in 100 μL (9.1 mg/mL) matrigel (Basement Membrane Matrix. Phenol Red-free) on day 0. Tumors were allowed to grow in the mice for 7 days, and then the animals were randomly assigned to three groups (n=5 per group): sham, tumor (vehicle) control and 10 mg/kg DETD-35 treatment group. DETD-35 was intraperitoneally […] injected every three days. The test mice were sacrificed by cervical dislocation at day 71, and the tumor were collected and measured for the volume (V) using calipers and calculated by the formula V=(L×W^2)/2, where L is the length and W is the width of tumor.

A2058 (BRAF mutation) = test: MTT cell viability assay, A2058 melanoma; format: cell-based, human
Outline: as §3

MDA-MB-231 cell invasion = test: Boyden chamber (Matrigel) invasion assay; format: cell-based, human; settings: 24 h
Protocol: (§4) To test the anti-migratory and anti-invasive effect of DET. DETD-35 and PTX. Boyden chambers assay was carried out. The lower well of the chamber (6.5 mm diameter, […]; Costar. Cambridge, Mass., USA) was added 10% fetal bovine serum (FBS) as a chemoattractant and filled with DMEM culture medium containing vehicle (DMSO, 0.05%), DET (2.5 and 4 μM). DETD-35 (1.25 and 2.5 μM), or PTX (2.5 and 4 μM). MDA-MB-231 cells were placed into the upper chamber (5×10^4 cells per insert) with the medium containing 0.1% FBS. After 24 h incubation at 37° C. in a 5% CO2 atmosphere, non-migrating cells were scraped from the upper surface of the membrane using a cotton swab, and the migrated cells remaining in the well were fixed and stained with DAPI solution (4,6-diamidino-2-phenylindole, 1 μg/ml). The migrating cells were counted in three fields at 20× original magnifications by inverted fluorescence microscopy. To test the anti-invasive effect of the compounds, 8-μm filters were pre-coating with Matrigel (30 μg per filter) and incubated at 37° C. for 2 h, then followed the protocol of migration assay descried about.

[4] = tested on: PC6 lung cancer cell line; test: MTT cell viability assay, PC6; format: cell-based; settings: 24 h
Protocol: as §1, §2

[5] = tested on: MDA-MB-231 cell migration; test: Boyden chamber migration assay; format: cell-based, human; settings: 24 h; for reduction of cell migration vs vehicle control: higher concentrations (DET 4 μM, DETD-35 2.5 μM, PTX 4 μM); for suppression of cell migration vs vehicle control: lower concentrations (DET 2.5 μM, DETD-35 1.25 μM, PTX 2.5 μM)
Protocol: as §4

[6] = tested on: A498 kidney cancer cell line; test: MTT cell viability assay, A498; format: cell-based; settings: Homo sapiens, 24 h
Protocol: as §1, §2

B16-F10 (NRAS mutation) = test: MTT cell viability assay, B16-F10 melanoma; format: cell-based; settings: Mus musculus, B16-F10, 24 h
Outline: as §3

[7] = tested on: M10 normal mammary epithelial cells; test: MTT cell viability assay, M10 normal cells; format: cell-based, human; settings: 24 h; for IC50: Homo sapiens, Epithelial cell
Outline: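 MTT readout at OD570; % viable = treated/vehicle ×100, vehicle (0.5% DMSO) set as 100%. Seeding 2×10^3–1×10^4 cells/well overnight, compound exposure 24 h to 72 h.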

[8] = tested on: NES-SA uterus cancer cell line; test: MTT cell viability assay, NES-SA; format: cell-based; settings: 24 h
Protocol: as §1, §2

MDA-MB-231 cell motility = test: Time-lapse microscope analysis of cell motility; format: cell-based, human; settings: 12 h, control 186
Protocol: A 12 well cell culture plate was coated with 25 μg/mL fibronectin for 1 h and then seeded with 5×10^4 MDA-MB-231 cells in DMEM containing 10% serum. Twelve hours after seeding, time-lapse microscopy experiments were performed on an Inverted Confocal Microscope (LSM 510 META) equipped with an environmental chamber with phase-contrast optics (images taken every 30 min). Using the object-tracking application of Metamorph software (Molecular Devices), an average of 12 subsequent cell centroid displacements/30 min between two consecutive images were evaluated as cell velocities of migration. In total, cell trajectories were recorded for 24 h. These assays were made in treatments with vehicle (DMSO, 0.05%), DET (2.5, 4 and 10 μM), and DETD-35 (1.25, 2.5, 4 μM) added at the beginning of the time-lapse imaging/video taping.

[9] = tested on: Melanocyte (Normal cells); test: MTT cell viability assay, normal melanocytes; format: cell-based, human; settings: 24 h; for IC50: Homo sapiens, Melanocyte
Outline: as §3

[10] = 24 h, read-out: IC50 on cell viability, B16-F10 (NRAS mutation)
[11] = Table 5, 24 h, read-out: IC50 viability B16-F10 (mouse) (Skin)

SMILES | IC50 (PC3 (Prostate)) [µM] | IC50 (U937 lymphoma line) [µM] | IC50 [1] [µM] | IC50 [2] [µM] | IC50 ([3]; Homo sapiens, MeWo) [µM] | IC50 (A2058 (BRAF mutation); Homo sapiens, A2058, 24 h) [µM] | IC50 [4] [µM] | reduction of cell migration vs vehicle control [5] [%] | suppression of cell migration vs vehicle control [5] [%] | IC50 [6] [µM] | IC50 (B16-F10 (NRAS mutation); [10]) [µM] | IC50 (B16-F10 (NRAS mutation); [11]) [µM] | IC50 [7] [µM] | IC50 [8] [µM] | migration distance (MDA-MB-231 cell motility; 2.5 μM) [μm] | migration distance (MDA-MB-231 cell motility; 4 μM) [μm] | IC50 [9] [µM] | further results
C=C1C(=O)O[C@H]2CC3=C[C@@H](C/C(C)=C/[C@@H](OC(=O)Cc4cccc5ccccc45)[C@H]12)OC3=O [DETD-35] | 5.5 | 0.18 | 0.34 | 0.26 | 6 | 3.1 | 0.34 | 84 | 10 | 0.79 | 2.7 | 2.7 | > 7.5 | 0.34 | 23 | 3 | > 10 | effect on mouse body weight (MDA-MB-231 mammary tumor; 10 mg/kg i.p.): without affecting the mouse body weight; fold decrease of tumor volume at day-71 vs tumor control (MDA-MB-231 mammary tumor; 10 mg/kg i.p.): 1.8 folds; tumor growth vs control group (MDA-MB-231 mammary tumor; 10 mg/kg i.p. every three days, day-56): significantly delayed; tumor volume at day-71 (MDA-MB-231 mammary tumor; 10 mg/kg i.p. every three days, tumor control 1268): 712 mm^3; inhibition at 2.5 µM (MDA-MB-231 cell invasion; Homo sapiens, MDA-MB-231, higher concentrations (DET 4 μM, DETD-35 2.5 μM, PTX 4 μM)): 80%; inhibition at 1.25 µM (MDA-MB-231 cell invasion; Homo sapiens, MDA-MB-231, lower concentrations (DET 2.5 μM, DETD-35 1.25 μM, PTX 2.5 μM)): 64.6%; IC50 on cell viability, M10 (normal) [7]: no detected toxicity; migration distance (MDA-MB-231 cell motility; 1.25 μM): 70 μm; IC50 on cell viability, Melanocyte (Normal cells) [9]: no detected toxicity
C=C(C)C(=O)O[C@H]1CC2=C[C@@H](C/C(C)=C/[C@H]3OC(=O)C(=C)[C@H]13)OC2=O [DET, deoxyelephantopin, reference compound] | 12.8 | 0.48 | 1 | 0.51 | > 10 | > 10 | 0.4 | 77 | 16 | 2.82 | ~6 | 6 | > 7.5 | 0.9 | 144 | 15 | > 10 | IC50 [3]: > 10 µM; IC50 (A2058 (BRAF mutation); 24 h): > 10 µM; inhibition of cell invasion (MDA-MB-231 cell invasion; higher concentrations (DET 4 μM, DETD-35 2.5 μM, PTX 4 μM)): 76%; inhibition of cell invasion (MDA-MB-231 cell invasion; lower concentrations (DET 2.5 μM, DETD-35 1.25 μM, PTX 2.5 μM)): 57%; migration distance (MDA-MB-231 cell motility; 10 μM): 9 μm
